The target of one test is T1, TRAF6/Uev1A/Ubc13 (Homo sapiens, UniProt Q9Y4K3).
T1 sequence (Q9Y4K3 1-522): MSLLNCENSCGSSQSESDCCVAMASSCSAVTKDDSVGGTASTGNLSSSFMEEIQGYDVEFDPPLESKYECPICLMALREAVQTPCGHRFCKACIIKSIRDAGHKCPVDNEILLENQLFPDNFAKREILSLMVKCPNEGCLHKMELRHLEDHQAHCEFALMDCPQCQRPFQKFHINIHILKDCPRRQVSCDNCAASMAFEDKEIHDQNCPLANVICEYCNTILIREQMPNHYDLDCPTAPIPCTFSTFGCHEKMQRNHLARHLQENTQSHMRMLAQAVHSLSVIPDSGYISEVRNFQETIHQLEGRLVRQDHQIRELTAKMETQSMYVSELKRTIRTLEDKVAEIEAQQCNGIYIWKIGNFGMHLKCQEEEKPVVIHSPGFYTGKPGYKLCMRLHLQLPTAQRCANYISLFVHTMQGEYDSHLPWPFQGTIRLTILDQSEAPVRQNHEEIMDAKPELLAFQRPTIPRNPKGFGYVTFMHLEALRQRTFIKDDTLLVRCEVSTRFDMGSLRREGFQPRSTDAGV
The test can be described thus: TRAF6/Uev1A/Ubc13 plate-based ubiquitin ligase assay. In kind it is biochemical. The method, boiled down:
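Ligase activity was read as luminescence from anti-Flag/HRP detection of Flag-ubiquitin bound to casein-blocked Ni-plates alongside His-ubiquitin after a 1 h room-temperature reaction. Buffer: 62.5 mM Tris pH 7.5, 6.25 mM MgCl2, 1.0 mM DTT, 2 μM ATP; E1, Uev1a/Ubc13 and TRAF6 added last to start. IC50s derived across compound concentrations.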

Test [1] relates to ICAM-1 expression in A549 cells. The test can be described thus: ICAM assay (IL-1 induced ICAM-1/CD54 expression in A549 cells). In kind it is cell-based, human. The following applies: Homo sapiens, A549, ICAM assay. An outline of the steps:
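Luminescent immunostaining (anti-CD54, then anti-mouse IgG, 1 h) quantifies ICAM-1 on A549 cells induced 4 h at 37° C by IL-1 (4 μl of 25 ng/ml added). Compound is added 1 h before the cytokine to cells plated overnight at 10,000 per well.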

The target in another test is APC11/APC2 (Homo sapiens, UniProt Q9NYG5+Q9UJX6). Briefly: APC-11/APC-2 ligase assay (APC auto ubiquitination). It is filed as biochemical. The settings on record: APC assay. An outline of the steps:
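His-tagged APC was captured on nickel plates with human E1 (5 ng/well), UbcH5c (20 ng/well), APC (100 ng/well) and Flag-ubiquitin (100 ng/well) in a Tris pH 7.6 reaction buffer containing 2.5 mM ATP, for 1 hour at room temperature. Read-out was anti-Flag/HRP chemiluminescence. IC50 was set against a DMSO control, typically from 6 or 8 concentrations.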

Structures are written as SMILES. Some results are limits rather than exact numbers.

One may read the IC50 as the concentration needed to halve the response being measured. Low readings indicate greater potency in that assay, high ones weaker potency in that assay.

Chain of APC11/APC2 (Q9NYG5 whole entry): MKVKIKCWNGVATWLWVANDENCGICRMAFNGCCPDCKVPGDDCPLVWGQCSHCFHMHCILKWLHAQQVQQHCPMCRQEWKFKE
Chain of APC11/APC2 (Q9UJX6 whole entry): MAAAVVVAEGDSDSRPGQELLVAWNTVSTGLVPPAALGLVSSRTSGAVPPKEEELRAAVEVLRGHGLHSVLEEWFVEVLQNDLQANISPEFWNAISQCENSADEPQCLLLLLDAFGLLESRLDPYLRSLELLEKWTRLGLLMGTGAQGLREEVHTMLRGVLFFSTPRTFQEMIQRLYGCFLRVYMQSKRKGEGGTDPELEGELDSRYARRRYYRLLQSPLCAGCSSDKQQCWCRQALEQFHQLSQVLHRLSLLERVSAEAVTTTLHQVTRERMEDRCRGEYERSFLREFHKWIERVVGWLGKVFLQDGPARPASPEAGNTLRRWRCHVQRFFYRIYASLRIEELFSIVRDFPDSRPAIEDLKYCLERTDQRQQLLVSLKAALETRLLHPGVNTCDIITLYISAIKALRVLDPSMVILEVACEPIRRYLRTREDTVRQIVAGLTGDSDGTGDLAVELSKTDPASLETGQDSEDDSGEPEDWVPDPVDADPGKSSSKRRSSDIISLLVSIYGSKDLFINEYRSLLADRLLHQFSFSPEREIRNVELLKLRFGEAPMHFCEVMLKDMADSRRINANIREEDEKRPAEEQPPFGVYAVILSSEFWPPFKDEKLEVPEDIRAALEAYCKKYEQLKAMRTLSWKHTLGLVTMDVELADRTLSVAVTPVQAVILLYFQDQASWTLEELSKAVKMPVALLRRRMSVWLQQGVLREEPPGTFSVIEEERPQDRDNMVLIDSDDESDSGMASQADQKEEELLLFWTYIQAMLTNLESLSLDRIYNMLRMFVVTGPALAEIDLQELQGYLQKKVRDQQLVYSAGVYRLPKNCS

For `Nc1ccc(Nc2cccc(F)c2F)c2nonc12` [compound 396, 7-{(2,3-difluorophenyl)amino}-2,1,3-benzoxadiazol-4-amine], the IC50 (on TRAF6/Uev1A/Ubc13; in test [1]; against APC11/APC2) was not below 20 µM in each case.
For the compound `O=[N+]([O-])c1ccc(Nc2cccc(F)c2F)c2nonc12` [compound 397, N-(2,3-difluorophenyl)-7-nitro-2,1,3-benzoxadiazol-4-amine], the 50% inhibitory concentration (IC50) (against TRAF6/Uev1A/Ubc13; in test [1]; against APC11/APC2) was not below 20 µM each time.
On to `Nc1ccc(Nc2ccc3[nH]ncc3c2)c2nonc12` [compound 398, N-(1H-indazol-5-yl)-2,1,3-benzoxadiazole-4,7-diamine], for which the IC50 was not below 20 µM against TRAF6/Uev1A/Ubc13, 1 to 20 µM in test [1] and not below 20 µM against APC11/APC2.
With `O=C(O)c1ccc(NS(=O)(=O)c2ccc(Cl)c3nonc23)cc1` [compound 399, 4-(7-chloro-2,1,3-benzoxadiazole-4-sulfonamido)benzoic acid], the half-inhibitory concentration (IC50) (against TRAF6/Uev1A/Ubc13; in test [1]; against APC11/APC2) was not below 20 µM each time.
Turning to `O=[N+]([O-])c1ccc(Nc2ccccc2F)c2nonc12` [compound 401, N-(2-fluorophenyl)-7-nitro-2,1,3-benzoxadiazol-4-amine], the half-maximal inhibitory concentration (IC50) (at TRAF6/Uev1A/Ubc13; in test [1]; against APC11/APC2) was not below 20 µM throughout.
As to `O=S(=O)(Nc1cccc(F)c1F)c1ccc(Sc2ccc(O)cc2)c2nonc12` [compound 402, N-(2,3-difluorophenyl)-7-([4-hydroxyphenyl]thio)-2,1,3-benzoxadiazole-4-sulfonamide], the results for the IC50 (on TRAF6/Uev1A/Ubc13; in test [1]; at APC11/APC2) were not below 20 µM, not below 20 µM and 1 to 20 µM, respectively.
Take `COc1ccccc1C(=O)Nc1ccc(Nc2cccc(F)c2F)c2nonc12` [compound 403, N-(7-[{2,3-difluorophenyl}amino]-2,1,3-benzoxadiazol-4-yl)-2-methoxybenzamide]: the IC50 (on TRAF6/Uev1A/Ubc13; in test [1]; on APC11/APC2) was not below 20 µM throughout.
As for `COc1ccccc1Nc1ccc(S(=O)(=O)Nc2ccccc2F)c2nonc12` [compound 404, N-(2-fluorophenyl)-7-([2-methoxyphenyl]amino)-2,1,3-benzoxadiazole-4-sulfonamide], the IC50 (against TRAF6/Uev1A/Ubc13; in test [1]; against APC11/APC2) was not below 20 µM in each case.
Regarding `Fc1cc2nonc2c(N2CCOCC2)c1F` [compound 405, 5,6-difluoro-4-(morpholin-4-yl)-2,1,3-benzoxadiazole], the IC50 (at TRAF6/Uev1A/Ubc13; in test [1]; at APC11/APC2) was not below 20 µM throughout.
`Fc1c(N2CCOCC2)cc2nonc2c1F` [compound 406, 4,5-difluoro-6-(morpholin-4-yl)-2,1,3-benzoxadiazole]: the half-inhibitory concentration (IC50) (at TRAF6/Uev1A/Ubc13; in test [1]; on APC11/APC2) was not below 20 µM throughout.
For `O=S(=O)(Nc1cccc2ccccc12)c1ccc(Sc2cccc3cccnc23)c2nonc12` [compound 407, N-(naphthalen-1-yl)-7-(quinolin-8-ylthio)-2,1,3-benzoxadiazole-4-sulfonamide], the IC50 (against TRAF6/Uev1A/Ubc13; in test [1]; against APC11/APC2) was 1 to 20 µM throughout.
`COc1cccc(Nc2ccc3nonc3c2S(=O)(=O)Nc2cccc(OC)c2OC)c1OC` [compound 408, N-(2,3-dimethoxyphenyl)-5-([2,3-dimethoxyphenyl]amino)-2,1,3-benzoxadiazole-4-sulfonamide]: the half-maximal inhibitory concentration (IC50) at TRAF6/Uev1A/Ubc13 was not below 20 µM; in test [1], 1 to 20 µM; on APC11/APC2 it was not below 20 µM.
With `COc1cccc(NS(=O)(=O)c2c(Cl)ccc3nonc23)c1OC` [compound 409, 5-chloro-N-(2,3-dimethoxyphenyl)-2,1,3-benzoxadiazole-4-sulfonamide], the IC50 at TRAF6/Uev1A/Ubc13 was not below 20 µM; in test [1] it was 1 to 20 µM; on APC11/APC2 it was not below 20 µM.
With `COc1cccc(NS(=O)(=O)c2ccc(Cl)c3nonc23)c1OC` [compound 410, 7-chloro-N-(2,3-dimethoxyphenyl)-2,1,3-benzoxadiazole-4-sulfonamide], the IC50 on TRAF6/Uev1A/Ubc13 was not below 20 µM; in test [1], 1 to 20 µM; on APC11/APC2, not below 20 µM.
On to `O=S(=O)(c1c(Cl)cc(Cl)c2nonc12)N1CCOCC1` [compound 411, 5,7-dichloro-4-{(morpholin-4-yl)sulfonyl}-2,1,3-benzoxadiazole], for which the IC50 is 1 to 20 µM against TRAF6/Uev1A/Ubc13, 1 to 20 µM in test [1] and not below 20 µM at APC11/APC2.
Take `O=S(=O)(c1c(N2CCOCC2)cc(Cl)c2nonc12)N1CCOCC1` [compound 412, 7-chloro-5-(morpholin-4-yl)-4-{(morpholin-4-yl)sulfonyl}-2,1,3-benzoxadiazole]: the IC50 is not below 20 µM on TRAF6/Uev1A/Ubc13, 1 to 20 µM in test [1] and not below 20 µM at APC11/APC2.
On to `COc1cccc(NS(=O)(=O)c2ccc(Sc3cccc4ccccc34)c3nonc23)c1OC` [compound 413, N-(2,3-dimethoxyphenyl)-7-(naphthalen-1-ylthio)-2,1,3-benzoxadiazole-4-sulfonamide], for which the IC50 (at TRAF6/Uev1A/Ubc13; in test [1]; on APC11/APC2) was 1 to 20 µM in each case.
In the case of `O=S(=O)(Nc1c(F)cccc1F)c1c(Cl)cc(Cl)c2nonc12` [compound 414, 5,7-dichloro-N-(2,6-difluorophenyl)-2,1,3-benzoxadiazole-4-sulfonamide], the half-inhibitory concentration (IC50) (against TRAF6/Uev1A/Ubc13; in test [1]; against APC11/APC2) was 1 to 20 µM throughout.
`O=S(=O)(Nc1cccc2ccccc12)c1c(Nc2cccc3ccccc23)cc(Cl)c2nonc12` [compound 415, 7-chloro-N-(naphthalen-1-yl)-5-(naphthalen-1-ylamino)-2,1,3-benzoxadiazole-4-sulfonamide]: the IC50 (against TRAF6/Uev1A/Ubc13; in test [1]; against APC11/APC2) was 1 to 20 µM in each case.
As to `O=S(=O)(Nc1cccc2ccccc12)c1c(Cl)cc(Cl)c2nonc12` [compound 416, 5,7-dichloro-N-(naphthalen-1-yl)-2,1,3-benzoxadiazole-4-sulfonamide], the IC50 (against TRAF6/Uev1A/Ubc13; in test [1]; against APC11/APC2) was 1 to 20 µM each time.
Regarding `O=S(=O)(Nc1cccc2ccccc12)c1c(Cl)cc(Nc2cccc3ccccc23)c2nonc12` [compound 417, 5-chloro-N-(naphthalen-1-yl)-7-(naphthalen-1-ylamino)-2,1,3-benzoxadiazole-4-sulfonamide], the 50% inhibitory concentration (IC50) (against TRAF6/Uev1A/Ubc13; in test [1]; at APC11/APC2) was 1 to 20 µM throughout.
For the compound `FC(F)(F)c1cccc(-c2cc(-c3cccc(C(F)(F)F)c3)c3nonc3c2)c1` [compound 418, 4,6-bis(3-[trifluoromethyl]phenyl)-2,1,3-benzoxadiazole], the IC50 (against TRAF6/Uev1A/Ubc13; in test [1]; on APC11/APC2) was not below 20 µM in each case.
Take `Cc1cccc(-c2cc(-c3cccc(C)c3)c3nonc3c2)c1` [compound 419, 4,6-bis(3-methylphenyl)-2,1,3-benzoxadiazole]: the IC50 (on TRAF6/Uev1A/Ubc13; in test [1]; at APC11/APC2) was not below 20 µM in each case.
Turning to `FC(F)(F)c1ccc(-c2cc(-c3ccc(C(F)(F)F)cc3)c3nonc3c2)cc1` [compound 420, 4,6-bis(4-[trifluoromethyl]phenyl)-2,1,3-benzoxadiazole], the half-inhibitory concentration (IC50) (on TRAF6/Uev1A/Ubc13; in test [1]; on APC11/APC2) was not below 20 µM each time.
As to `COc1cccc(-c2cc(-c3cccc(OC)c3)c3nonc3c2)c1` [compound 421, 4,6-bis(3-methoxyphenyl)-2,1,3-benzoxadiazole], the concentration for half-maximal inhibition (IC50) (against TRAF6/Uev1A/Ubc13; in test [1]; at APC11/APC2) was not below 20 µM throughout.
With `CC(C)(C)c1ccc(-c2cc(-c3ccc(C(C)(C)C)cc3)c3nonc3c2)cc1` [compound 422, 4,6-bis(4-t-butylphenyl)-2,1,3-benzoxadiazole], the IC50 (at TRAF6/Uev1A/Ubc13; in test [1]; against APC11/APC2) was not below 20 µM in each case.
For `COc1ccccc1-c1cc(-c2ccccc2OC)c2nonc2c1` [compound 423, 4,6-bis(2-methoxyphenyl)-2,1,3-benzoxadiazole], the IC50 (against TRAF6/Uev1A/Ubc13; in test [1]; against APC11/APC2) was not below 20 µM throughout.
Regarding `O=S(=O)(Nc1ccccc1Br)c1ccc(Cl)c2nonc12` [compound 424, N-(2-bromophenyl)-7-chloro-2,1,3-benzoxadiazole-4-sulfonamide], the IC50 (on TRAF6/Uev1A/Ubc13; in test [1]; against APC11/APC2) was not below 20 µM each time.

(Values after patent US20050282818A1, “Ubiquitin ligase inhibitors” (Rigel Pharmaceuticals, Inc., priority 2004, published 2005).)
